# Legend:
# Assay type in all cases: binding
# [1] = biological target: T1, GABBR1 (Homo sapiens, UniProt Q9UBS5); assay: NanoBRET screen HiBiT-GABBR1 in HEK293
# T1 construct: purchased Promega (in-house HiBiT-GPCR construct library, NanoBRET)
# Procedure: (§1) Each tracer candidate was screened across the entire library of HiBiT-GPCR constructs using NanoBRET as the detection modality. As depicted in Figure 4A, the specificity of interactions was evaluated through decrease in BRET due to competitive displacement of a bound tracer by excess parental compound. Each tracer was analyzed for binding to each HiBiT-GPCR fusion in the absence and in the presence of competing parental compound. Briefly, HEK293 cells were transfected with HiBiT-GPCR constructs diluted into promoterless DNA to reduce expression and maximize translocation to the cell surface. Each tracer candidate was then screened at concentrations of 1 μM and 0.1 μM across cells expressing these fusions. Cells were treated for 1.5 h with tracer either alone or in the presence of 20 μM competing parental compound (i.e., control). BRET was measured upon addition of purified LgBiT and subsequent complementation with HiBiT genetically fused to a GPCR. The specificity of interactions was assessed through a decrease in BRET signal due to competitive displacement of the bound tracer. To further gauge the robustness of these interactions, the fold response over the control (i.e., BRETtracer/BRETcontrol) was calculated. We chose a 1.5-fold response, which translates to ≥7-fold signal over noise as the minimal threshold required to score an interaction as positive. […]. Below we highlight the screening results obtained for our exemplary fluorescent tracers based on Clozapine, Amitriptyline and AZD1283.
# (§2) HiBiT-GPCR DNA constructs were diluted in 10 mM Tris pH 8 to a final concentration of 0.01 μg/μL, arrayed in 96-well plates and stored at −20 °C. For transfection, HEK293 cells were suspended in Opti-MEM (without phenol red) supplemented with 2% fetal bovine serum (Seradigm) and 100 units/mL penicillin–streptomycin (Gibco) at a final concentration of 220,000 cells/mL and dispensed into white 96-well plates at 90 μL/well. Subsequent transfections and screens were carried using an Agilent Bravo Automated Liquid Handling Platform. First, the 96-well HiBiT DNA arrays were diluted 25-fold in Opti-MEM (without serum or phenol red) to a final concentration of 0.0004 μg/μL and 20 μL of the diluted DNAs were transferred into new 96-well plates. Next, promoterless carrier DNA (1 μg/μL) was diluted 25-fold (0.04 μg/μL) and then dispensed into the diluted arrays at 20 μL/well. Following brief mixing, Viafect transfection reagent (Promega) diluted 16-fold into Opti-MEM was dispensed into the plates at 40 μL/well. After mixing by pipetting, plates were incubated for 10 min on the pipetting station deck. The DNA-transfection reagent complexes were then added to plates containing cells. To facilitate the screen, 10 μL of DNA-transfection reagent complexes were added in duplicates to the top 4 and bottom 4 rows, resulting in two identical 48-well arrays per plate. Plates with transfected cells were incubated for 18–20 h at 37 °C/5% CO2. A screen of each tracer across the entire library using two different concentrations requires duplicate plates of transfected cells. Depending on the number of tracers being screened, transfections can be scaled up using the same ratios. The next day, for each tracer, four 20× screening solutions in tracer dilution buffer (Promega) were prepared: two duplicates at final concentration of 20 μM and two duplicates at a final concentration of 2 μM. A competing unmodified compound was added to one of each duplicate at a final concentration of 400 μM. The four resulting solutions were diluted 4-fold in Opti-MEM without serum or phenol red to generate 5× solutions (5 µM and 0.5 µM tracer +/− 100 μM competing compound). To screen the library, a BioTek MultiFlo FX liquid dispenser was used to dispense 22.5 µL of tracer solution to the top 4 rows and 22.5 µL tracer + competing compound solution to the 4 bottom rows. Plates were briefly mixed on an orbital shaker and incubated for 1.5 h at room temperature. […]
# [2] = biological target: T2, F2R (Homo sapiens, UniProt P25116); assay: NanoBRET screen HiBiT-F2R in HEK293
# T2 construct: purchased Promega (in-house HiBiT-GPCR construct library, NanoBRET)
# T2 sequence (P25116 22-425): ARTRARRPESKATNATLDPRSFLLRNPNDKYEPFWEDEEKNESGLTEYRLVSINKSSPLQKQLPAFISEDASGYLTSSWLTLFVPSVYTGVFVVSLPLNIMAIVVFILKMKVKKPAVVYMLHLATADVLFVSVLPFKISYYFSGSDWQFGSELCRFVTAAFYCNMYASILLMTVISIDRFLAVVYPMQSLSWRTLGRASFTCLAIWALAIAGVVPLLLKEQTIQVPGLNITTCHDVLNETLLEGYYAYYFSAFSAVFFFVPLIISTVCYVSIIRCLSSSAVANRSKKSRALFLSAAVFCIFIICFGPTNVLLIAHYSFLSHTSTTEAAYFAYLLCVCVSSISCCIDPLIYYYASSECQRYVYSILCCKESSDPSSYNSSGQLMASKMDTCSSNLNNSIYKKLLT
# Procedure: as §1, §2
# [3] = biological target: T3, HCRTR2 (Homo sapiens, UniProt O43614); assay: NanoBRET screen HiBiT-HCRTR2 in HEK293
# T3 construct: purchased Promega (in-house HiBiT-GPCR construct library, NanoBRET)
# T3 sequence (O43614 1-444): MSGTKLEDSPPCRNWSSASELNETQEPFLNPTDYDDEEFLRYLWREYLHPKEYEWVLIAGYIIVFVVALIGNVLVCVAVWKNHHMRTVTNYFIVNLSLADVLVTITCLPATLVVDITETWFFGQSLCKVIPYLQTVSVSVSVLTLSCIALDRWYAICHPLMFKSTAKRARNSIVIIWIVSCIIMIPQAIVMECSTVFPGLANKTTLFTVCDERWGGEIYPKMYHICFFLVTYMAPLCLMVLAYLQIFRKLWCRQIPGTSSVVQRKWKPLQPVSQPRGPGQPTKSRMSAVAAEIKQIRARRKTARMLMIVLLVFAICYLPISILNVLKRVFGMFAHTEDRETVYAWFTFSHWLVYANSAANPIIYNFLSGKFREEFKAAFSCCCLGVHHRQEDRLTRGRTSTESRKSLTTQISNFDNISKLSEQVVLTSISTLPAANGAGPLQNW
# Procedure: as §1, §2
# [4] = biological target: T4, NPBWR2 (Homo sapiens, UniProt P48146); assay: NanoBRET screen HiBiT-NPBWR2 in HEK293
# T4 construct: purchased Promega (in-house HiBiT-GPCR construct library, NanoBRET)
# Procedure: as §1, §2
# [5] = biological target: T5, PTGER2 (Homo sapiens, UniProt P43116); assay: NanoBRET screen HiBiT-PTGER2 in HEK293
# T5 construct: purchased Promega (in-house HiBiT-GPCR construct library, NanoBRET)
# Procedure: as §1, §2
# [6] = biological target: T6, HRH2 (Homo sapiens, UniProt P25021); assay: NanoBRET screen HiBiT-HRH2 in HEK293
# T6 construct: purchased Promega (in-house HiBiT-GPCR construct library, NanoBRET)
# Procedure: as §1, §2
# [7] = biological target: T7, CXCR4 (Homo sapiens, UniProt P61073); assay: NanoBRET screen HiBiT-CXCR4 in HEK293
# T7 construct: purchased Promega (in-house HiBiT-GPCR construct library, NanoBRET)
# Procedure: as §1, §2
# [8] = tracer at 0.1μM, listed as amitriptyline-b-2-NB590
# [9] = tracer at 1μM, listed as amitriptyline-b-2-NB590
# T5 sequence (P43116 whole entry): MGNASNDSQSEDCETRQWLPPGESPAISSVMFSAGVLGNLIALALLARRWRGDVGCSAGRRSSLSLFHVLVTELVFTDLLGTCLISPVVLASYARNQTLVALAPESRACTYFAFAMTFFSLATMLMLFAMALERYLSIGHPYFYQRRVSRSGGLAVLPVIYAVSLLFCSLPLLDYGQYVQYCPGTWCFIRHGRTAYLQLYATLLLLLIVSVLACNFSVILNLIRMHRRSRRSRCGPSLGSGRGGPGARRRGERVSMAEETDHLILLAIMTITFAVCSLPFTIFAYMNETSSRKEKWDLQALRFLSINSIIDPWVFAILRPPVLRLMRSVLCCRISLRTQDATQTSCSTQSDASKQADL
# T1 sequence (Q9UBS5 15-961 limits assumed): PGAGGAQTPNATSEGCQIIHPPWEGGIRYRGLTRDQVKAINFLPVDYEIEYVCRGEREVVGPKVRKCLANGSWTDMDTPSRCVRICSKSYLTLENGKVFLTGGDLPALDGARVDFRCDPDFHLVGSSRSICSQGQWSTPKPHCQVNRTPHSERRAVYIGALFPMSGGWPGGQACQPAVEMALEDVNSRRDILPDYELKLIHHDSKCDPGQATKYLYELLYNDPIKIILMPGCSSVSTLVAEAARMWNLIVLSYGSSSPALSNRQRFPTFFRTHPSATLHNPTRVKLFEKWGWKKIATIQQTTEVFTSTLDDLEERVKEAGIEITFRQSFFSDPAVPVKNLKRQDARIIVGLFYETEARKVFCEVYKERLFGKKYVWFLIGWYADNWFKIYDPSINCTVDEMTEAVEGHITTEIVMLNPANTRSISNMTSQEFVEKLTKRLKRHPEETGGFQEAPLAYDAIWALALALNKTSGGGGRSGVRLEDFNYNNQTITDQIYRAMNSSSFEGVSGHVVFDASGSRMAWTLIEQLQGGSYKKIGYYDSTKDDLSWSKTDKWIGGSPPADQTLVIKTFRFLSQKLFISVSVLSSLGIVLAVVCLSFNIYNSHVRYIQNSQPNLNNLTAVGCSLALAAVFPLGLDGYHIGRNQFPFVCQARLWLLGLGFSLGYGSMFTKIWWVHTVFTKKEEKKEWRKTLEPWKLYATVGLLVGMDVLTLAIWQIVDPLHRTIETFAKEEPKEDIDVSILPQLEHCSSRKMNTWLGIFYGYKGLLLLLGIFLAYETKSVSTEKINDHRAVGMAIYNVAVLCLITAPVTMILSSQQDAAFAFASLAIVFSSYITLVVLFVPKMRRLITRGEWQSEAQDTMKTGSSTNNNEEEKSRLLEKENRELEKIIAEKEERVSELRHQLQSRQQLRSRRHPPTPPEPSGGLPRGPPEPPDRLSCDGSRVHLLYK
# T7 sequence (P61073 whole entry): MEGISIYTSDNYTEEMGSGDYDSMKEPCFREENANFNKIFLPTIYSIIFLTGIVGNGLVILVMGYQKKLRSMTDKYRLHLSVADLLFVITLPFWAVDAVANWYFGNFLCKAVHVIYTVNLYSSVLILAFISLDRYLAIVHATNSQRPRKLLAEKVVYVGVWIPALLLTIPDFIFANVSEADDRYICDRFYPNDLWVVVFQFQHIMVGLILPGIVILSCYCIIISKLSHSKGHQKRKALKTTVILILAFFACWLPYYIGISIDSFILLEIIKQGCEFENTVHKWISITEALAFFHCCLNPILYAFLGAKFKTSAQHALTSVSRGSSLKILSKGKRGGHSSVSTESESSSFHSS
# T6 sequence (P25021 whole entry): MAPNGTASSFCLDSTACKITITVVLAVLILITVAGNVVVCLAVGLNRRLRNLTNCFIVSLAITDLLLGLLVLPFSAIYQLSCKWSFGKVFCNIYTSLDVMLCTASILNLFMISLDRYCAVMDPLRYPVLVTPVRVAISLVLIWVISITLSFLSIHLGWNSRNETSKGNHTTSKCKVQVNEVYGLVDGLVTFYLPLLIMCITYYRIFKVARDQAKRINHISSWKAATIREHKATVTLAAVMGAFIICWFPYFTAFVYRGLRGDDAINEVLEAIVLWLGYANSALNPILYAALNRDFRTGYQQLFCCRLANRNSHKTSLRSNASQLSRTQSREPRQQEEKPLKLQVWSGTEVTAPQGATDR
# T4 sequence (P48146 whole entry): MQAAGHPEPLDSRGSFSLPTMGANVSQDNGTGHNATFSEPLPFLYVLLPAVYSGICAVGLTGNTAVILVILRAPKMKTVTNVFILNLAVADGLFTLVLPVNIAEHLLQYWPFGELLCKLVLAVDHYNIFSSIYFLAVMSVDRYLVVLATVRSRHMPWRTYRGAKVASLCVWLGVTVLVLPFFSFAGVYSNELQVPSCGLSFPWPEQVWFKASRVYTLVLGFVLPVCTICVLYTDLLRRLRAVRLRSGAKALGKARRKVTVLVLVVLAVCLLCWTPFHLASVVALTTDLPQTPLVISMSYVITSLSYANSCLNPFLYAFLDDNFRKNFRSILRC
structure (smiles),measurement,setting,value
CN1CCN(C2=Nc3cc(Cl)ccc3Nc3ccc(CNC(=O)CCOCCOCCOCCOCCNC(=O)CCc4ccc5n4[B-](F)(F)[N+]4=C(c6ccc[nH]6)C=CC4=C5)cc32)CC1 [Clozapine-b-2-NB590],NanoBRET Fold Response,"[1]; GABBR1, 0.1μM tracer",0.93
same,NanoBRET Fold Response,"[1]; GABBR1, 1μM tracer",1.38
same,NanoBRET Fold Response,"[2]; F2R, 0.1μM tracer",1.02
same,NanoBRET Fold Response,"[2]; F2R, 1μM tracer",1.01
same,NanoBRET Fold Response,"[3]; HCRTR2, 0.1μM tracer",0.99
same,NanoBRET Fold Response,"[3]; HCRTR2, 1μM tracer",0.98
same,NanoBRET Fold Response,"[4]; NPBWR2, 0.1μM tracer",0.99
same,NanoBRET Fold Response,"[4]; NPBWR2, 1μM tracer",1.08
same,NanoBRET Fold Response,"[5]; PTGER2, 0.1μM tracer",1.01
same,NanoBRET Fold Response,"[5]; PTGER2, 1μM tracer",0.98
same,NanoBRET Fold Response,"[6]; HRH2, 0.1μM tracer",1.01
same,NanoBRET Fold Response,"[6]; HRH2, 1μM tracer",0.97
same,NanoBRET Fold Response,"[7]; CXCR4, 0.1μM tracer",1.03
same,NanoBRET Fold Response,"[7]; CXCR4, 1μM tracer",1.07
CN(C)CCC=C1c2ccccc2CCc2ccc(C(=O)NCCNC(=O)CCOCCOCCOCCOCCNC(=O)CCc3ccc4n3[B-](F)(F)[N+]3=C(c5ccc[nH]5)C=CC3=C4)cc21 [Amitriptyline-b-2-NB590],NanoBRET Fold Response,[1]; [8],1.11
same,NanoBRET Fold Response,[1]; [9],0.85
same,NanoBRET Fold Response,[2]; [8],0.76
same,NanoBRET Fold Response,[2]; [9],0.97
same,NanoBRET Fold Response,[3]; [8],1.00
same,NanoBRET Fold Response,[3]; [9],0.98
same,NanoBRET Fold Response,[4]; tracer at 0.1μM,1.01
same,NanoBRET Fold Response,[4]; tracer at 1μM,0.95
same,NanoBRET Fold Response,[5]; tracer at 0.1μM,1.01
same,NanoBRET Fold Response,[5]; tracer at 1μM,1.01
same,NanoBRET Fold Response,[6]; [8],0.85
same,NanoBRET Fold Response,[6]; [9],1.05
same,NanoBRET Fold Response,[7]; [8],1.12
same,NanoBRET Fold Response,[7]; tracer at 1μM,0.70
CCOC(=O)c1cc(C#N)c(N2CCC(C(=O)NS(=O)(=O)Cc3ccccc3/C=C/C(=O)NCCNC(=O)CCc3ccc4n3[B-](F)(F)[N+]3=C(c5ccc[nH]5)C=CC3=C4)CC2)nc1C [AZD1283-1-NB590],NanoBRET Fold Response,"[1]; GABBR1, 0.1μM",1.05
same,NanoBRET Fold Response,"[1]; GABBR1, 1μM",1.13
same,NanoBRET Fold Response,"[2]; F2R, 0.1μM",1.01
same,NanoBRET Fold Response,"[2]; F2R, 1μM",1.01
same,NanoBRET Fold Response,"[3]; HCRTR2, 0.1μM",1.01
same,NanoBRET Fold Response,"[3]; HCRTR2, 1μM",1.01
same,NanoBRET Fold Response,"[4]; NPBWR2, 0.1μM",0.95
same,NanoBRET Fold Response,"[4]; NPBWR2, 1μM",0.99
same,NanoBRET Fold Response,"[5]; PTGER2, 0.1μM",1.00
same,NanoBRET Fold Response,"[5]; PTGER2, 1μM",1.04
same,NanoBRET Fold Response,"[6]; HRH2, 0.1μM",0.90
same,NanoBRET Fold Response,"[6]; HRH2, 1μM",1.03
same,NanoBRET Fold Response,"[7]; CXCR4, 0.1μM",0.86
same,NanoBRET Fold Response,"[7]; CXCR4, 1μM",1.17
CC(C)N(CC[C@H](c1ccccc1)c1cc(CCNC(=O)CCOCCOCCOCCOCCNC(=O)CCc2ccc3n2[B-](F)(F)[N+]2=C(c4ccc[nH]4)C=CC2=C3)ccc1O)C(C)C [Tolterodine-2-NB590],NanoBRET Fold Response,"[1]; GABBR1, tracer 0.1μM",1.32
same,NanoBRET Fold Response,"[1]; GABBR1, tracer 1μM",1.14
same,NanoBRET Fold Response,"[2]; F2R, tracer 0.1μM",1.20
same,NanoBRET Fold Response,"[2]; F2R, tracer 1μM",1.03
same,NanoBRET Fold Response,"[3]; HCRTR2, tracer 0.1μM",1.04
same,NanoBRET Fold Response,"[3]; HCRTR2, tracer 1μM",1.00
same,NanoBRET Fold Response,"[4]; NPBWR2, tracer 0.1μM",1.41
same,NanoBRET Fold Response,"[4]; NPBWR2, tracer 1μM",0.83
same,NanoBRET Fold Response,"[5]; PTGER2, tracer 0.1μM",1.00
same,NanoBRET Fold Response,"[5]; PTGER2, tracer 1μM",1.01
same,NanoBRET Fold Response,"[6]; HRH2, tracer 0.1μM",1.06
same,NanoBRET Fold Response,"[6]; HRH2, tracer 1μM",0.82
same,NanoBRET Fold Response,"[7]; CXCR4, tracer 0.1μM",0.88
same,NanoBRET Fold Response,"[7]; CXCR4, tracer 1μM",1.02
